Source: patent US8048901B2, “1,3-substituted cycloalkyl derivatives having acidic, mostly heterocyclic groups, processes for their preparation and their use as pharmaceuticals” (Aventis Pharma Deutschland GmbH, priority 2003, dated 2011)

Biological target: T1, human PPARalpha (Homo sapiens, UniProt Q07869)
T1 construct: human PPARalpha receptor (amino acids S167-Y468); expressed in transfected cells; host or cells: HEK cells (human embryo kidney), stably transfected with a pcDNA3-based plasmid
T1 sequence (Q07869 167-468): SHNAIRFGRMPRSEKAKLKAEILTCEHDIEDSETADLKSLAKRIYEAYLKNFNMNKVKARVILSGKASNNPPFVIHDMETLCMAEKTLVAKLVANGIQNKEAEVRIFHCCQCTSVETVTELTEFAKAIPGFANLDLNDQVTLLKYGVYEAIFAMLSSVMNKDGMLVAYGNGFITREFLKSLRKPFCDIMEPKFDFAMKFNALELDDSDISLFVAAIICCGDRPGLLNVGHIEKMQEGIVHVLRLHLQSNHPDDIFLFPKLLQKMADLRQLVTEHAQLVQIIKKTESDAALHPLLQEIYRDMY
Experiment: Cellular PPARalpha assay (stably transfected HEK PPARalpha reporter cell line, luciferase)
Assay type: cell-based
Settings: GR-GAL4-humanPPARalpha-LBD, luciferase readout
Protocol: Determination of EC50 Values of PPAR Agonists in the Cellular PPARalpha Assay
The potency of substances which bind to human PPARalpha and activate in an agonistic manner is analyzed using a stably transfected HEK cell line (HEK=human embryo kidney) which is referred to here as PPARalpha reporter cell line. It contains two genetic elements, a luciferase reporter element (pdeltaM-GAL4-Luc-Zeo) and a PPARalpha fusion protein (GR-GAL4-humanPPARalpha-LBD) which mediates expression of the luciferase reporter element depending on a PPARalpha ligand. The stably and constitutively expressed fusion protein GR-GAL4-humanPPARalpha-LBD binds in the cell nucleus of the PPARalpha reporter cell line via the GAL4 protein portion to the GAL4 DNA binding motifs 5′-upstream of the luciferase reporter element which is integrated in the genome of the cell line. There is only little expression of the luciferase reporter gene without addition of a PPARalpha ligand if fatty acid-depleted fetal calf serum (cs-FCS) is used in the assay. PPARalpha ligands bind and activate the PPARalpha fusion protein and thereby bring about expression of the luciferase reporter gene. The luciferase which is formed can be detected by means of chemiluminescence via an appropriate substrate.
The PPARalpha reporter cell line was prepared in 2 stages. Firstly, the luciferase reporter element was constructed and stably transfected into HEK cells. For this purpose, five binding sites of the yeast transcription factor GAL4 (each 5′-CGGAGTACTGTCCTCCGAG-3′) (SEQ ID No. 1) were cloned in 5′-upstream of a 68 bp-long minimal MMTV promoter (Genbank Accession # V01175). The minimal MMTV promoter section contains a CCAAT box and a TATA element in order to enable efficient transcription by RNA polymerase II. The cloning and sequencing of the GAL4-MMTV construct took place in analogy to the description of Sambrook J. et. al. (Molecular cloning, Cold Spring Harbor Laboratory Press, 1989). Then the complete Photinus pyralis gene (Genbank Accession # M15077) was cloned in 3′-downstream of the GAL4-MMTV element. After sequencing, the luceriferase reporter element consisting of five GAL4 binding sites, MMTV promoter and luciferase gene was recloned into a plasmid which confers zeocin resistance in order to obtain the plasmid pdeltaM-GAL4-Luc-Zeo. This vector was transfected into HEK cells in accordance with the statements in Ausubel, F. M. et al. (Current protocols in molecular biology, Vol. 1-3, John Wiley & Sons, Inc., 1995).
In a second step, the PPARalpha fusion protein (GR-GAL4-humanPPARalpha-LBD) was introduced into the stable cell clone described. For this purpose, initially the cDNA coding for the N-terminal 76 amino acids of the glucocorticoid receptor (Genbank Accession # P04150) was linked to the cDNA section coding for amino acids 1-147 of the yeast transcription factor GAL4 (Genbank Accession # P04386). The cDNA of the ligand-binding domain of the human PPARalpha receptor (amino acids S167-Y468; Genbank Accession # S74349) was cloned in at the 3′-end of this GR-GAL4 construct. The fusion construct prepared in this way (GR-GAL4-humanPPARalpha-LBD) was recloned into the plasmid pcDNA3 (from Invitrogen) in order to enable constitutive expression therein by the cytomegalovirus promoter. This plasmid was linearized with a restriction endonuclease and stably transfected into the previously described cell clone containing the luciferase reporter element. The finished PPARalpha reporter cell line which contains a luciferase reporter element and constitutively expresses the PPARalpha fusion protein (GR-GAL4-human PPARalpha-LBD) was isolated by selection with zeocin (0.5 mg/ml) and G418 (0.5 mg/ml).
The activity of PPARalpha agonists is determined in a 3-day assay which is described below: […]

Compound | EC50 [nM]
Cc1cccc(-c2nc(CO[C@H]3CCC[C@@H](OCCOc4cccc(C)c4C(=O)O)C3)c(C)o2)c1 [Example XIV, (1R,3S)-2-Methyl-6-{2-[3-(5-methyl-2-m-tolyloxazol-4-ylmethoxy)cyclohexyloxy]ethoxy}benzoic acid] | 106
Cc1cccc(-c2nc(CO[C@H]3CCC[C@@H](OCCCNS(=O)(=O)C(F)(F)F)C3)c(C)o2)c1 [Example II, (1R,3S)—C,C,C-Trifluoro-N-{3-[3-(5-methyl-2-m-tolyloxazol-4-ylmethoxy)cyclohexyloxy]propyl}methanesulfonamide] | 331
COc1ccc2cc(C(=O)O)n(CCO[C@@H]3CCC[C@H](OCc4nc(-c5cccc(C)c5)oc4C)C3)c2c1 [Example XI, (1R,3S)-6-Methoxy-1-{2-[3-(5-methyl-2-m-tolyloxazol-4-ylmethoxy)cyclohexyloxy]ethyl}-1H-indole-2-carboxylic acid] | 361
Cc1ccc(-c2nc(CO[C@@H]3CCC[C@H](Cn4c(C(=O)O)cc5ccccc54)C3)c(C)o2)cc1 (racemic) [Example XXVI, 1-[(1S,3R)/(1R,3S)-3-(5-Methyl-2-p-tolyloxazol-4-ylmethoxy)cyclohexylmethyl]-1H-indole-2-carboxylic acid] | 24
Cc1cccc(-c2nc(CO[C@H]3CCC[C@@H](OCCOc4cc(C(F)(F)F)sc4C(=O)O)C3)c(C)o2)c1 [Example XXIII, (1R,3S)-3-{2-[3-(5-Methyl-2-m-tolyloxazol-4-ylmethoxy)cyclohexyloxy]ethoxy}-5-trifluoromethylthiophene-2-carboxylic acid] | 222
Cc1cccc(-c2nc(CO[C@H]3CCC[C@@H](OCCOc4cccc(C)c4[N+](=O)[O-])C3)c(C)o2)c1 [Example XXI, (1S,3R)-5-Methyl-4-{3-[2-(3-methyl-2-nitrophenoxy)ethoxy]cyclohexyloxymethyl}-2-m-tolyloxazole] | 530
Cc1cccc(-c2nc(CO[C@H]3CCC[C@@H](OCCOc4ccccc4C(=O)O)C3)c(C)o2)c1 [Example XV, (1R,3S)-2-{2-[3-(5-Methyl-2-m-tolyloxazol-4-ylmethoxy)cyclohexyloxy]-ethoxy}benzoic acid] | 519
CCc1ccc2c(c1)cc(C(=O)O)n2CCO[C@@H]1CCC[C@H](OCc2nc(-c3cccc(C)c3)oc2C)C1 [Example VII, (1R,3S)-5-Ethyl-1-{2-[3-(5-methyl-2-m-tolyloxazol-4-ylmethoxy)cyclohexyloxy]ethyl}-1H-indole-2-carboxylic acid] | 469
